# Key:
# V79 = assay: Cytotoxicity against chinese hamster V79 cells by MTT assay; format: cell-based; conditions: Cricetulus griseus
# K562 = assay: Cytotoxicity against human K562 cells; format: functional, cell-based
# Hepatocyte = assay: Cytotoxicity against Wistar rat hepatocytes cells by MTT assay; format: cell-based
smiles,measurement,setting,value
CC(=O)O[C@@H]1CC2[C@@](C)(C(=O)O)CCC[C@@]2(C)[C@@H]2C[C@@H]3C4C[C@@]21C[C@]43C (stereo partly drawn),IC50,V79,224 µM
same,IC50,K562,200 µM
same,IC50,Hepatocyte,231 µM
